According to article PMC5829242, “Chiral DOTA chelators as an improved platform for biomedical imaging and therapy applications” (Nature Communications, 2018):
Like-named read-outs stand apart in the source and are kept apart here. One block for each compound: values may come before it.

Columns and labels:
[1] = Relaxivity measurements at 1.41T and 37 °C; assay type: physicochemical
Method: (§1) Relaxivity measurements were performed on a Bruker mq60 Minispec at 1.41T and 37 °C. Longitudinal (T1) relaxation times were measured using an inversion recovery experiment with 10 inversion times of duration ranging between 0.05 × T1 and 5 × T1. Transverse (T2) relaxation times were measured using a CPMG pulse sequence. Relaxivity (r1, r2) was determined from the slope of a plot of 1/T1,2 vs [Gd] for at least 4 concentrations of Gd(III) (data shown in Supplementary Figs. 93–110). The T2 relaxation times of ^17O at 11.7T were estimated from the full-width at half-height of the H2^17O resonance at temperatures ranging from 278 to 368K. Reduced relaxation rates (1/T2r) were calculated by taking the difference of 1/T2 measured in the presence and absence of Gd(III) and dividing by the mole fraction of coordinated water molecules, assuming q = 1. […] However, at the high magnetic field used, and because of the very-fast water exchange rates observed, there was negligible contribution of T1e, and the data were refit to a two-parameter model using the water exchange rate at 310K (τM) and enthalpy of activation for water exchange (ΔH^‡) as adjustable parameters. The Gd-O hyperfine coupling constant, A/ħ, was assumed to be -3.8 × 10^6 rad s^−1 [57], [58]. Samples were prepared in neat H2O adjusted and enriched with a small amount of H2^17O.

[2] = Gd complexes biodistribution studies (ICP-MS); assay type: in vivo, BALB/c mice; conditions: 0.025 mmol/kg i.v.; for Gd biodistribution / elimination profile: 5-360 min post injection
Text: Most commercially available Gd(III)-based MRI contrast agents are excreted rapidly and exclusively through the renal pathway. One of the few exceptions is an acyclic compound, Gd-EOB-DTPA, which has a mixed clearance (50% renal, 50% biliary) and is used for imaging of the liver and biliary system. Gd-BOPTA and MS-325 have predominantly renal elimination with <10% elimination through the biliary system. […] We illustrated with our studies that there is a significant variation in the biodistribution profiles despite the small structural differences of the chiral substituents (Supplementary Fig. 20). Gd biodistribution in BALB/c mice was measured by ICP-MS at 5, 15, 30, 60, 180 and 360 min following injection. […] Low levels of Gd(III) are present at 6 h post injection. […] The specific and unusual localisation of [GdL2]^− in the liver makes it a potential hepatobiliary-specific MRI contrast agent.
(§2) Gd concentrations were determined using an Agilent 8800-QQQ ICP-MS system. All samples were diluted with 0.1% Triton X-100 in 5% nitric acid. Lutetium internal standard was steadily introduced to the ICP-MS from an external source during the analysis. A linear calibration curve for each metal ranging from 0.1 ppb to 200 ppb was generated daily for the quantification.
Complexes [GdL1]^−, [GdL2]^− and [GdL5]^− were prepared by dissolving in saline solution, while [GdDOTA]^− (Dotarem) was diluted in saline solution. Eight-week-old male BALB/c mice (purchased from BioLASCO, Taiwan) each weighing approximately 25 g were administered with a single dose of 0.025 mmol/kg compound ([GdL1]^−, [GdL2]^−, [GdDOTA]^− and [GdL5]^−; 3 mice per compound per time point) in a 100 μl volume via lateral tail vein injection. The mice were then euthanized, and their blood collected by cardiac puncture at each time point (5, 15, 30, 60, 180 or 360 min post injection). A control group of 4 mice was treated with saline and killed at time point 0. The liver, lung, heart, kidneys, spleen and brain were removed from the animals and weighed. Gd content in tissue and blood samples was quantified via ICP-MS analysis. All experiments were performed in accordance with the NIH Guide for the Care and Use of Laboratory Animals and approved by the Institutional Animal Care and Use Committee of Massachusetts General Hospital or by the Department of Health of the Hong Kong Government and the Animal Subjects Ethics Sub-Committee of Hong Kong Polytechnic University.

[3] = Kinetic stability of Gd complexes monitored by RP-HPLC (acid, base, DTPA, DOTA, ZnCl2); assay type: physicochemical; conditions: for stability and interconversion: one equivalent of DOTA ligand in 1N HCl
Text: The kinetic stability of GBCAs, which reflects the dissociation of the Gd ions from its chelate is used to predict the stability in vivo[10]. The proton-assisted dissociation and direct attack of the endogenous ions are regarded as two main pathways that induced the dissociation of the chelates. The inertness of our Gd(III) complexes was maintained up to 7 days after addition of 1000 equivalents of a competitive ligand, DTPA (Supplementary Fig. 7 & 8). […] The harshest condition tried was setting the complexes of [GdL2A]^−, [GdL2B]^− and [GdDOTA]^− in 1N HCl (Fig. 5, Supplementary Figs. 13 - 15).
Fig. […] Error bars for [GdL2A]^- and [GdL2B]^- refer to the standard error of mean (S.E.M.), statistical data fitting analysis (n = 3; s.e.m.)

[4] = cited from earlier work
[5] = 17O NMR water exchange (residence time of water co-ligand); assay type: physicochemical; conditions: 17O NMR at 11.7T; for τM^310K, mean residence time of the water co-ligand at 310 K: q = 1 assumed
Method: as §1

[6] = In vivo dynamic T1-weighted MR imaging at 4.7T; parameters: species or system C57/Bl6 mice; conditions: 0.1 mmol per kg i.v., 4.7 tesla, n = 1
Method: Dynamic T1-weighted MR imaging at 4.7 tesla was performed with C57/Bl6 mice before, during, and after 0.1 mmol per kg injection of each compound (Fig. 7).
(§3) Imaging was performed at 4.7T using a small-bore animal scanner (Bruker Biospec). Pilot dynamic MRI studies were performed with [GdL1]^−, [GdL2A]^−, [GdL2B]^− and [GdL5]^−; n = 1 per compound. Six to eight weeks male C57/Bl6 mice were anaesthetised with isoflurane (1%–2%) and placed in a specially designed cradle with body temperature maintained at 37 °C. The tail vein was catherised for intravenous delivery of the contrast agent while the animal was positioned in the scanner. A pneumatic pillow was placed on the mouse to enable respiratory monitoring (SA Instruments), and the animal’s body temperature was maintained with warm air. The imaging protocol utilised a three-dimensional fast low angle shot (3D FLASH) with a […] flip angle, 9.00 ms repetition rate, 2.39 ms echo time, 4.8 cm × 2.4 cm × 2.4 cm field of view with a 0.3 mm isotropic resolution. Images were acquired with either 2 or 8 averages giving an acquisition time of 2 min or 8 min, respectively. Baseline images were acquired with both 2 and 8 averages, then the Gd complex (0.1 mmol per kg) was injected intravenously and the sequence with 2 averages was repeated for a period of 10 min to monitor blood clearance. At 10, 30, 45, 60, 75 and 90 min after probe injection, the sequence with 8 averages was repeated to monitor the clearance of contrast from the liver and kidneys. After imaging was performed, the mouse was removed from the scanner and euthanized at 2 h post injection and the tissues were harvested for Gd quantification by ICP-MS.

[7] = Ex vivo biodistribution 2 h post injection after MRI study (ICP-MS); assay type: in vivo, C57/Bl6 mice; conditions: 0.1 mmol per kg i.v.
Method: as §2, §3

[8] = 1N HCl, room temperature, after 487 h

ΔH^‡, enthalpy change of activation of water exchange [5]: 16 ± 1.4 kJ/mol | τM^310K, mean residence time of the water co-ligand at 310 K [5]: 13 ± 0.4 ns | r1 relaxivity ([1]; 4.5% w/v HSA (1.4T)): 4.5 mM⁻¹ s⁻¹ | r1 relaxivity ([1]; Human Plasma (1.4T)): 4.6 mM⁻¹ s⁻¹ | r1 relaxivity ([1]; Water (1.4T)): 4.1 mM⁻¹ s⁻¹ | Gd biodistribution / elimination profile [2]: near equal renal and hepatic clearance | Gd concentration in blood [7]: 1.04 nmol Gd per gram tissue | Gd concentration in gall bladder [7]: 139.87 nmol Gd per gram tissue | Gd concentration in heart [7]: 1.68 nmol Gd per gram tissue | Gd concentration in intestines [7]: 7.75 nmol Gd per gram tissue | Gd concentration in kidney [7]: 16.71 nmol Gd per gram tissue | Gd concentration in liver [7]: 1.64 nmol Gd per gram tissue | Gd concentration in lung [7]: 1.81 nmol Gd per gram tissue | Gd concentration in muscle [7]: 4.29 nmol Gd per gram tissue | Gd concentration in spleen [7]: 6.63 nmol Gd per gram tissue | Gd concentration in stomach [7]: 11.35 nmol Gd per gram tissue | Gd concentration in tail [7]: 4.57 nmol Gd per gram tissue
SMILES: C[C@H]1CN(CC(=O)[O-])[C@@H](C)CN(CC(=O)[O-])[C@@H](C)CN(CC(=O)[O-])[C@@H](C)CN1CC(=O)[O-].[Gd+3] [[GdL1]^−]
MR enhancement of liver and gall bladder [6]: some enhancement of the liver and gall bladder

τM^310K, mean residence time of the water co-ligand at 310 K [5]: 1.1 ± 0.1 ns | r1 relaxivity ([1]; 4.5% w/v HSA (1.4T)): 4.8 mM⁻¹ s⁻¹ | r1 relaxivity ([1]; Human Plasma (1.4T)): 4.9 mM⁻¹ s⁻¹ | r1 relaxivity ([1]; Water (1.4T)): 3.9 mM⁻¹ s⁻¹ | decomplexation ([3]; 0.1N NaOH, over 10 days): negligible decomplexation | decomplexation [3, 8]: only minimal decomplexation | decomplexation ([3]; 1N HNO3, over 10 days): negligible decomplexation | stability and interconversion [3]: no interconversion was observed | Gd concentration in gall bladder [7]: 1066 nmol Gd per gram tissue | Gd concentration in blood ([7]; listed as GdL2B): 0.60 nmol Gd per gram tissue | Gd concentration in gall bladder ([7]; listed as GdL2B): 1066.22 nmol Gd per gram tissue | Gd concentration in heart ([7]; listed as GdL2B): 3.09 nmol Gd per gram tissue | Gd concentration in intestines ([7]; listed as GdL2B): 47.07 nmol Gd per gram tissue | Gd concentration in kidney ([7]; listed as GdL2B): 7.42 nmol Gd per gram tissue | Gd concentration in liver ([7]; listed as GdL2B): 1.12 nmol Gd per gram tissue | Gd concentration in lung ([7]; listed as GdL2B): 2.63 nmol Gd per gram tissue | Gd concentration in muscle ([7]; listed as GdL2B): 5.43 nmol Gd per gram tissue | Gd concentration in spleen ([7]; listed as GdL2B): 4.82 nmol Gd per gram tissue | Gd concentration in stomach ([7]; listed as GdL2B): 1.05 nmol Gd per gram tissue | Gd concentration in tail ([7]; listed as GdL2B): 2.64 nmol Gd per gram tissue
SMILES: CC[C@H]1CN(CC(=O)[O-])[C@@H](CC)CN(CC(=O)[O-])[C@@H](CC)CN(CC(=O)[O-])[C@@H](CC)CN1CC(=O)[O-].[Gd+3] [[GdL2B]^−]
MR enhancement of liver and gall bladder [6]: profound enhancement of the liver and gall bladder | MR signal in the kidneys over time / at 60 min post injection [6]: approached baseline

Gd biodistribution / elimination profile [2]: mainly distributed in the liver | Gd(III) detected after 60 min (liver retention) ([2]; ICP-MS): negligible amounts
SMILES: CC[C@H]1CN(CC(=O)[O-])[C@@H](CC)CN(CC(=O)[O-])[C@@H](CC)CN(CC(=O)[O-])[C@@H](CC)CN1CC(=O)[O-].[Gd+3] [[GdL2]^−]

The remaining lines, values behind:

SMILES: O=C([O-])CN1CCN(CC(=O)[O-])CCN(CC(=O)[O-])CCN(CC(=O)[O-])CC1.[Gd+3] [[GdDOTA]^−, reference compound]
r1 relaxivity ([1]; 4.5% w/v HSA (1.4T)): 4.1 mM⁻¹ s⁻¹ | r1 relaxivity ([1]; Human Plasma (1.4T)): 4.0 mM⁻¹ s⁻¹ | r1 relaxivity ([1]; Water (1.4T)): 3.2 mM⁻¹ s⁻¹ | Gd biodistribution / elimination profile [2]: rapid elimination from the body via the kidneys | Gd(III) present at 6 h post injection ([2]; ICP-MS): Low levels | half-life of the complex ([3]; 1N HCl, room temperature): < 25 h | half-life of the complex ([3]; 100 equivalents of zinc chloride at 50 °C): ~ 100 h | ΔH^‡ ([4]; SAP isomer): 58.1 ± 2.5 kJ/mol | τM^310K ([4]; SAP isomer): 141 ns | ΔH^‡ ([4]; TSAP isomer): 41.9 ± 3.1 kJ/mol | τM^310K ([4]; TSAP isomer): 27 ns

SMILES: CC[C@H]1CN(CC(=O)[O-])[C@@H](CC)CN(CC(=O)[O-])[C@@H](CC)CN(CC(=O)[O-])[C@@H](CC)CN1CC(=O)[O-].[Gd+3] [[GdL2A]^−]
ΔH^‡, enthalpy change of activation of water exchange [5]: 43 ± 2.0 kJ/mol | τM^310K, mean residence time of the water co-ligand at 310 K [5]: 6.6 ± 0.4 ns | r1 relaxivity ([1]; 4.5% w/v HSA (1.4T)): 4.7 mM⁻¹ s⁻¹ | r1 relaxivity ([1]; Human Plasma (1.4T)): 4.7 mM⁻¹ s⁻¹ | r1 relaxivity ([1]; Water (1.4T)): 4.2 mM⁻¹ s⁻¹ | MR enhancement of liver and gall bladder [6]: very similar behaviour to [GdL2B]^− | decomplexation ([3]; 0.1N NaOH, over 10 days): negligible decomplexation | decomplexation [3, 8]: almost no decomplexation | decomplexation ([3]; 1N HNO3, over 10 days): negligible decomplexation | decomplexation ([3]; 100 equivalents of zinc chloride at 50 °C, ~100 h): no obvious decomplexation | stability and interconversion [3]: no interconversion was observed | Gd concentration in gall bladder [7]: 854 nmol Gd per gram tissue | Gd concentration in blood ([7]; listed as GdL2A): 0.49 nmol Gd per gram tissue | Gd concentration in gall bladder ([7]; listed as GdL2A): 854.21 nmol Gd per gram tissue | Gd concentration in heart ([7]; listed as GdL2A): 1.82 nmol Gd per gram tissue | Gd concentration in intestines ([7]; listed as GdL2A): 0.05 nmol Gd per gram tissue | Gd concentration in kidney ([7]; listed as GdL2A): 20.92 nmol Gd per gram tissue | Gd concentration in liver ([7]; listed as GdL2A): 10.47 nmol Gd per gram tissue | Gd concentration in lung ([7]; listed as GdL2A): 3.61 nmol Gd per gram tissue | Gd concentration in muscle ([7]; listed as GdL2A): 5.18 nmol Gd per gram tissue | Gd concentration in spleen ([7]; listed as GdL2A): 4.72 nmol Gd per gram tissue | Gd concentration in stomach ([7]; listed as GdL2A): 3.14 nmol Gd per gram tissue | Gd concentration in tail ([7]; listed as GdL2A): 2.13 nmol Gd per gram tissue
